4 compounds from patent publication EP2002836B1, “Cyclocondensed azaindoles active as kinase inhibitors” (Nerviano Medical Sciences S.r.l., priority 2007, dated 2008) can be followed below.

The target of test [1] is AKT3 (Homo sapiens, UniProt Q9Y243). Description: Biochemical assay for inhibitors of AKT3 kinase activity (33P trans-phosphorylation, Dowex resin). The settings on record: 1 nM enzyme, 180 microM ATP, 28.5 microM peptide substrate; read-out: AKT3 IC50 (µM) Biochem assay. On the procedure:
(§1) The N-terminal GST fusion proteins used for the assays were prepared according to the methods described in Kumar, C. C. Biochem. Biophys. ACTA 2001, 1526, 257-268, and in Alessi, D. R.. Biochem. J. 1998 331, 299-308.
The in vitro kinase inhibition assay was conducted in the same way as described for AKT1. The kinase assay was run with a final enzyme concentration of 1 nM, in the presence of 180 microM ATP, 0.88 nM ^33P-γ-ATP and 28.5 microM substrate, a carboxy-terminally biotinylated peptide of the following sequence: ARKRERTYSFGHHA-biotin. The peptide was obtained in batches of >95% peptide purity from PRIMM labs Inc. (Boston MA, USA).

Test [2] deals with AKT1 (Homo sapiens, UniProt P31749). Description: FABS-NMR screening (3-FABS, 19F-labelled AKTide-like substrate) on AKT-1. The test is classed as biochemical. On the set-up: The active human Ser-Thr protein kinase AKT-1 Full Length was expressed as GST fusion protein; GST (cleaved yes); made in house; host or cells: insect cells. To be noted: 25 nM protein, 30 µM substrate, 1.5 mM ATP; read-out: AKT1 IC50 (µM) FABS NMR assay. The procedure:
(§2) The biochemical functional NMR screening on the proteins kinase AKT-1 and PKA was performed using the 3-FABS (3-Fluorine Atoms for Biochemical Screening) technique developed by C. Dalvit and the NMR group in house (C. Dalvit et al 2003 J. Am. Chem. Soc. 125 (47): 14620).
(§3) The method require the use of a ^19F-labelled substrate. The same commercial peptide was used as substrate in both enzymatic reaction: the Tyr just before the phosphorilation site in the AKTide peptide was mutated in a 3-tryfluormethyl-Phe by Bachem.
(§4) The AKTide like peptide sequence is reported below: • H-Ala-Arg-Lys-Arg-Glu-Arg-Ala-F(3-CF3)-Ser-Phe-Gly-His-His-Ala-OH
(§5) The active human Ser-Thr protein kinase AKT-1 Full Length was expressed as GST fusion protein in insect cells and then the GST was cleaved with PreScission protease. The active cycled AMP-dependent human protein kinase A PKA was expressed as polyHis-tag protein in E.Coli and purified by affinity column.
(§6) Reactions were performed in an end point format in eppendorf of 0.5 ml using the buffer solution 50mM Tris, pH 7.5, 5mM MgCl2, 1mM DTT, 8% D2O and 0.001% Triton-X-100; the final volume was of 560 µl. The substrate and protein concentration were of 30 µM and 25 nM respectively. The reactions were performed using an ATP concentration of about 9 times its KM: 150 µM in the test with PKA and 1.5 mM in the AKT-1 experiments. A sample in absence of inhibitor was run as control in order to follow the ongoing of the reaction and it represents the 0% inhibition. Different concentration compound stock solutions in DMSOd6 were made in order to add the same amount of DMSOd6 in each sample: usually the compounds stock were of 0.03, 0.2, 2, and 10 mM. 0.56 µl of these solution was added in each sample in order to reach the final compounds concentration of 30 nM, 200 nM 2 µM and 10 µM respectively; 0.56 µl of DMSOd6 was added in the control too. The reactions were quenched after about 100/120 minutes with 10 mM of Staurosporine (Sigma code:S4400), transferred into the 5 mm NMR tube (Cortec code: NE-MP5-8) and put onto the Sample Management System (SMS) autosampler for automatic data collection. The spectra were recorded using the Varian Inova 600 MHz NMR spectrometer operating at a ^19F Larmor frequency of 564 MHz and using a 5mm probe with the inner coil tuned to ^19F and the outer coil tuned to H. The data were recorded without proton decoupling with a spectral width of 12000 Hz, an acquisition time of 0.8s and a relaxation delay of 2.8s. Chemical shifts are referenced to trifluoroacetic acid.
(§7) IC50 determination was achieved by measuring the substrate signal as a function of the inhibitor concentration using one of the formulas below. […] IC50 data were analyzed with non-linear least squares methods in the Origin 5.0 software package.

Test [3] concerns the target T1, PKAα (Homo sapiens, UniProt P17612).
T1 construct: polyHis; made in house; host or cells: E. coli
Description: FABS-NMR screening (3-FABS, 19F-labelled AKTide-like substrate) on PKA. The test is classed as biochemical. To be noted: 25 nM protein, 30 µM substrate, 150 µM ATP. The procedure:
as §2, §3, §4, §5, §6, §7

Test [4] concerns the target T2, AKT2 (Homo sapiens, UniProt P31751).
T2 construct: made in house
Description: Biochemical assay for inhibitors of AKT2 kinase activity (33P trans-phosphorylation, Dowex resin). To be noted: 10 nM enzyme, 396 microM ATP, 8.5 microM peptide substrate; read-out: AKT2 IC50 (µM) Biochem assay. On the procedure:
as §1
The in vitro kinase inhibition assay was conducted in the same way as described for AKT1. The kinase assay was run with a final enzyme concentration of 10 nM, in the presence of 396 microM ATP, 0.88 nM ^33P-γ-ATP and 8.5 microM substrate, a carboxy-terminally biotinylated peptide of the following sequence: ARKRERTYSFGHHA-biotin. The peptide was obtained in batches of >95% peptide purity from PRIMM labs Inc. (Boston MA, USA).

SMILES strings stand for the structures.

T2 sequence (P31751 whole entry, species assumed): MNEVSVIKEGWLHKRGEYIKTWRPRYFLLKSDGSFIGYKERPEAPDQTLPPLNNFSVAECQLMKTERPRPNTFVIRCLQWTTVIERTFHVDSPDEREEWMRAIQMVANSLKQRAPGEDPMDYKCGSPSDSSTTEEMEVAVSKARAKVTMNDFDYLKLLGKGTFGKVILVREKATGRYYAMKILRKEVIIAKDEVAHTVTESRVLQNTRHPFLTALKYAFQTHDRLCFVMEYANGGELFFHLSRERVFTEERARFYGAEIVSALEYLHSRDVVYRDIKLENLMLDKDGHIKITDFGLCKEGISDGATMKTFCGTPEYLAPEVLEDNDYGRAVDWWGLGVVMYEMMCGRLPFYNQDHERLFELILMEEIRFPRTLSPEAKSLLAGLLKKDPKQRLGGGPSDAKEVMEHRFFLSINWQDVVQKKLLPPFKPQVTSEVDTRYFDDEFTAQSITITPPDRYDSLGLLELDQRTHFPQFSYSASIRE
Sequence of AKT3 (Q9Y243 2-479): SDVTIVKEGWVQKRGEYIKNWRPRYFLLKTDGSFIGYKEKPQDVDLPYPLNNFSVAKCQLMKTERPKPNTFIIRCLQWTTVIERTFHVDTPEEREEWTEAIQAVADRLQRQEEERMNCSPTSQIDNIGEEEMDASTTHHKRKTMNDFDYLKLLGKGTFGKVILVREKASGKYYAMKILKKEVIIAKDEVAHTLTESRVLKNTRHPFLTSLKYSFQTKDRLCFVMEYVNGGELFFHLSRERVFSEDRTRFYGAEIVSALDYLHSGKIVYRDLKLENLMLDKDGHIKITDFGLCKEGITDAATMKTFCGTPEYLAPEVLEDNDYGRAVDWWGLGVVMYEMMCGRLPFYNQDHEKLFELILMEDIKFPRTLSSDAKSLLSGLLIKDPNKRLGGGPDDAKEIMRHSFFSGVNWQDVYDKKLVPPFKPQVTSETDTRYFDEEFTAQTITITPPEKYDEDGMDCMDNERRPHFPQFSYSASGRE
Sequence of AKT1 (P31749 whole entry, the tested form may be a part): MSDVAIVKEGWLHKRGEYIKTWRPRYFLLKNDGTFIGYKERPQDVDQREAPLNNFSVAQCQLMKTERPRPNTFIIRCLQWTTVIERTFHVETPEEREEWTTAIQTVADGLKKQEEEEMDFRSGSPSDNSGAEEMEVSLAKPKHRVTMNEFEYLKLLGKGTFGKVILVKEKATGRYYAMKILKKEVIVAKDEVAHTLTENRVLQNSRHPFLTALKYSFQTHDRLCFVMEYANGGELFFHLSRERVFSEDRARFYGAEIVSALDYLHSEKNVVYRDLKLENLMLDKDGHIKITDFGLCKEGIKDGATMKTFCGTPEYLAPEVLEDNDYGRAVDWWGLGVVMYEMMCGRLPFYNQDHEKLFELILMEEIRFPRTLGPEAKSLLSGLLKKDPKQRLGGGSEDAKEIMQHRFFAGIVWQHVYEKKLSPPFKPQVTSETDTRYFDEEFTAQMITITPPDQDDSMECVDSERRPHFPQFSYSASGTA

On to `NC[C@H](Cc1ccccc1)NC(=O)C1=Cc2c[nH]c3nccc(c23)CC1` [Cpd. 1, N-[(1S)-2-amino-1-benzylethyl]-6,7-dihydro-2H-2,3-diazabenzo[cd]azulene-8-carboxamide], for which the IC50 in test [1] is 0.032 µM; in test [2], 0.15 µM; in test [3] it was 0.02 µM; in test [4], 0.266 µM.
In the same order, the values of `CC(=O)N1CC(C(=O)N[C@H](CN)Cc2ccccc2)=Cc2c[nH]c3nccc1c23` [Cpd. 3, 6-acetyl-N-[(1S)-2-amino-1-benzylethyl]-6,7-dihydro-2H-2,3,6-triazabenzo[cd]azulene-8-carboxamide] are 0.187 µM, 0.76 µM, 0.075 µM and 1.99 µM.
Take `O=C(N[C@H](CN1CCCC1)c1ccccc1)C1=Cc2c[nH]c3nccc(c23)CC1` [Cpd. 6, N-[(1S)-1-phenyl-2-pyrrolidin-1-ylethyl]-6,7-dihydro-2H-2,3-diazabenzo[cd]azulene-8-carboxamide]: the IC50 in test [1] is 0.043 µM; in test [2], 0.315 µM; in test [3], 0.062 µM; in test [4], 0.362 µM.
Consider `NC[C@H](Cc1ccccc1)NC(=O)C1=Cc2c[nH]c3nccc(c23)NC1` [compound 2, N-[(1S)-2-amino-1-benzylethyl]-6,7-dihydro-2H-2,3,6-triazabenzo[cd]azulene-8-carboxamide], for which the IC50 in test [1] was 0.041 µM; in test [2] it was 0.03 µM; in test [3], 0.01 µM; in test [4], 0.155 µM.

The IC50 is the midpoint of a concentration-inhibition curve.
